Legend:
[1] = DPPH free radical antioxidant activity assay; type: biochemical; details: dilution 1 ml, wavelength 517 nm; for Inhibition: DPPH assay
Method: Antioxidant activity of the synthesized Cr(III) Schiff base complexes was tested using the free radical compound 2,2-diphenyl-1-picrylhydrazyl(DPPH) (25,26). This compound has a violet color when dissolved in ethanol and a strong absorption maximum centered at around 515-520 nm. DPPH became colorless or pale yellow when neutralized. An aliquot of DPPH (0.3 ml) in ethanol ([…]) was added to ethanol(3 ml), followed by addition of Cr(III) complex dissolve in ethanol (0.5 ml)(total Volume 3.8 ml). A UV/visible spectrophotometer was used to monitor the color change at 517 nm after 100 minutes of reaction. A blank sample contained a mixture of the Cr(III) complex in ethanol (0.5 ml) and ethanol (3.3 ml) (Total Volume 3.8 ml) without any DPPH (no violet color). A control sample contained a solution of DPPH (0.3 ml) and ethanol (3.5 ml) (total volume 3.8 ml) without any Cr (III) complex (Violet color remains). The amount of scavenging activity (%) was determined by the method of Mensor et al. (27).
Finally, the % scavenging activities for Schiff base ligands and derived Cr(III) complexes were calculated by applying the formula
Scavenging activity=(Ac−At)/Ac×100%
Where Ac and At represent the absorbance of the control and test samples, respectively (Choudhary et al., 2011)^28

[2] = Eastmond et al., 2008; Katz & salem, 1993; cited from earlier work

Row | SMILES | Inhibition [1] | DPPH Equivalent Antioxidant activity [1] | Total Antioxidant activity [1] [%] | Acute toxicity range [2] [mg/kg]
1 | CC/C=N\NC(=O)CC(=O)Nc1ccc(C)cc1 [Ligand 2, N-[4-methylphenyl)-3-oxo-3[(2Z)-2-propylidene hydrazinyl] propanamide] | 0.074 | 1.223 | 66 | 
2 | [Cr+3] [Cr(III) ion] |  |  |  | 1.5 to 3.3
3 | Cc1ccc(NC(=O)CC(=O)NNc2cc[nH]c2)cc1 [Ligand 1] | 0.077 | 1.253 | 65 | 
